The source of these data is patent US20260258032A1, “TYROSINE KINASE 2 INHIBITORS AND USES THEREOF” (BIOGEN MA INC., priority 2022, published 2026).

The target in assay [1] is T1, JH2 domain of human Tyk2 (Homo sapiens, UniProt P29597).
T1 construct: 10×His-tagged TYK2 JH2 domain (amino acid 575-876)
Description: JH2 biochemical assay (TR-FRET probe displacement). The format is binding. The settings on record: JH2 biochemical assay. An outline of the steps:
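A probe-displacement TR-FRET readout: compounds, tested in 3-fold, 10-point dilutions starting at […], compete with 2 nM tracer for 2 nM His-tagged JH2 (residues 575-876) detected by 0.1 nM Tb-anti-His over 60 min. IC50 comes from 4-parameter fits of normalized 520/495 nm ratios.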

For assay [2], the system named is Tyk2 kinase activity on STAT4. Description: pSTAT4 cell assay (MSD, NK92 cells). The format is cell-based. The settings on record: compounds 1 hr, stimulated 15 minutes. The procedure, abridged: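 Read-out: phospho-STAT in NK92 lysates, MSD format, anti-STAT4 antibodies. Cells were serum-starved, given compound for 1 hr (10 μM top, four-fold, 10 points) and IL2-stimulated (30 ng/mL, 15 min). Normalized percent activity vs log concentration, 4-parameter logistic fit gave IC50.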

Where a name gives a salt, the structure may show the parent alone.

T1 sequence (P29597 575-876): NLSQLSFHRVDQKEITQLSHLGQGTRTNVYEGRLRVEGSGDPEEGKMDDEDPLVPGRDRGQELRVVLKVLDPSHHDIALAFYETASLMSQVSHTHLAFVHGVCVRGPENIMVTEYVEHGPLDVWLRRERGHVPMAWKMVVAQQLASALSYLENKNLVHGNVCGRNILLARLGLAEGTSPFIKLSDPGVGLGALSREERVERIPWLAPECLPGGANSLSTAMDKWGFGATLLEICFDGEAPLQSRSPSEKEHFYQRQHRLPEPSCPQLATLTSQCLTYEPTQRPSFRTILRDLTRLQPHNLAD

For the compound `CC(=O)Nc1cc2c(cn1)C1(CC1)CN2c1cc(C)cc(N2CC(C)(C#N)C2)n1` [Example 200, N-(1′-(6-(3-cyano-3-methylazetidin-1-yl)-4-methylpyridin-2-yl)-1′,2′-dihydrospiro[cyclopropane-1,3′-pyrrolo[3,2-c]pyridin]-6′-yl)acetamide], the half-maximal inhibitory concentration (IC50) was in the range of 10 to 100 nM in assay [1] and 100 to 1000 nM in assay [2].

Take `CC(=O)Nc1cc2c(cn1)C1(CC1)CN2c1cc(C)cc(N2CC(C(F)F)C2)n1` [Example 201, N-(1′-(6-(3-(difluoromethyl)azetidin-1-yl)-4-methylpyridin-2-yl)-1′,2′-dihydrospiro[cyclopropane-1,3′-pyrrolo[3,2-c]pyridin]-6′-yl)acetamide trifluoroacetate]: the IC50 was 10 to 100 nM in assay [1] and at least 1000 nM in assay [2].

With `CC(=O)Nc1cc2c(cn1)C1(CC1)CN2c1cc(C)cc(N2CC(C#N)(C(F)F)C2)n1` [Example 202, N-(1′-(6-(3-cyano-3-(difluoromethyl)azetidin-1-yl)-4-methylpyridin-2-yl)-1′,2′-dihydrospiro[cyclopropane-1,3′-pyrrolo[3,2-c]pyridin]-6′-yl)acetamide], the 50% inhibitory concentration (IC50) was 10 to 100 nM in assay [1] and at least 1000 nM in assay [2].

With `CC(=O)Nc1cc2c(cn1)C1(CC1)CN2c1cc(C)cc(N2CC(S(C)(=O)=O)C2)n1` [Example 203, N-(1′-(4-methyl-6-(3-(methylsulfonyl)azetidin-1-yl)pyridin-2-yl)-1′,2′-dihydrospiro[cyclopropane-1,3′-pyrrolo[3,2-c]pyridin]-6′-yl)acetamide], the IC50 in assay [1] was 100 to 1000 nM; in assay [2] it was at least 1000 nM.

With `CCS(=O)(=O)C1CN(c2cc(C)cc(N3CC4(CC4)c4cnc(NC(C)=O)cc43)n2)C1` [Example 204, N-(1′-(6-(3-(ethylsulfonyl)azetidin-1-yl)-4-methylpyridin-2-yl)-1′,2′-dihydrospiro[cyclopropane-1,3′-pyrrolo[3,2-c]pyridin]-6′-yl)acetamide], the results for the concentration for half-maximal inhibition (IC50) in assay [1] and in assay [2] were 100 to 1000 nM and at least 1000 nM, respectively.

For `CC(=O)Nc1cc2c(cn1)C1(CC1)CN2c1cc(C)cc(N2CC(C)(O)C2)n1` [Example 205, N-(1′-(6-(3-hydroxy-3-methylazetidin-1-yl)-4-methylpyridin-2-yl)-1′,2′-dihydrospiro[cyclopropane-1,3′-pyrrolo[3,2-c]pyridin]-6′-yl)acetamide], the concentration for half-maximal inhibition (IC50) in assay [1] is 10 to 100 nM; in assay [2] it was at least 1000 nM.

Take `CC(=O)Nc1cc2c(cn1)C1(CC1)CN2c1cc(C)cc(N2CCOCC2)n1` [Example 206, N-(1′-(4-methyl-6-morpholinopyridin-2-yl)-1′,2′-dihydrospiro[cyclopropane-1,3′-pyrrolo[3,2-c]pyridin]-6′-yl)acetamide]: the figures for the IC50 in assay [1] and in assay [2] were 10 to 100 nM and 100 to 1000 nM, respectively.

As for `CC(=O)Nc1cc2c(cn1)C1(CC1)CN2c1cc(C)cc(N2CCN(C)CC2)n1` [Example 207, N-(1′-(4-methyl-6-(4-methylpiperazin-1-yl)pyridin-2-yl)-1′,2′-dihydrospiro[cyclopropane-1,3′-pyrrolo[3,2-c]pyridin]-6′-yl)acetamide], the IC50 was 100 to 1000 nM in assay [1] and at least 1000 nM in assay [2].

Turning to `CC(=O)Nc1cc2c(cn1)C1(CC1)CN2c1cc(C)cc(N2CCC3(CC2)COC3)n1` [Example 208, N-(1′-(4-methyl-6-(2-oxa-7-azaspiro[3.5]nonan-7-yl)pyridin-2-yl)-1′,2′-dihydrospiro[cyclopropane-1,3′-pyrrolo[3,2-c]pyridin]-6′-yl)acetamide], the IC50 was 100 to 1000 nM in assay [1] and at least 1000 nM in assay [2].

Consider `CC(=O)Nc1cc2c(cn1)C1(CC1)CN2c1cc(C)cc(N2C[C@H]3CNC[C@H]3C2)n1` [Example 209, N-(1′-(6-((3aR,6aS)-hexahydropyrrolo[3,4-c]pyrrol-2(1H)-yl)-4-methylpyridin-2-yl)-1′,2′-dihydrospiro[cyclopropane-1,3′-pyrrolo[3,2-c]pyridin]-6′-yl)acetamide trifluoroacetate], for which the half-maximal inhibitory concentration (IC50) in assay [1] is 100 to 1000 nM; in assay [2], at least 1000 nM.

Consider `CC(=O)Nc1cc2c(cn1)C1(CC1)CN2c1cc(C)cc(N2CC3CCNC3C2)n1` (stereo not drawn) [Example 210, N-(1′-(6-(hexahydropyrrolo[3,4-b]pyrrol-5(1H)-yl)-4-methylpyridin-2-yl)-1′,2′-dihydrospiro[cyclopropane-1,3′-pyrrolo[3,2-c]pyridin]-6′-yl)acetamide trifluoroacetate], for which the IC50 in assay [1] is 100 to 1000 nM; in assay [2], at least 1000 nM.

On to `CC(=O)Nc1cc2c(cn1)C1(CC1)CN2c1cc(C)cc(N2CCNCC2)n1` [Example 211, N-(1′-(4-methyl-6-(piperazin-1-yl)pyridin-2-yl)-1′,2′-dihydrospiro[cyclopropane-1,3′-pyrrolo[3,2-c]pyridin]-6′-yl)acetamide trifluoroacetate], for which the half-maximal inhibitory concentration (IC50) in assay [1] was at most 10 nM; in assay [2], at least 1000 nM.

For the compound `CC(=O)Nc1cc2c(cn1)C1(CC1)CN2c1cc(C)cc(N2CCNC(CCO)C2)n1` (stereo not drawn) [Example 212, N-(1′-(6-(3-(2-hydroxyethyl)piperazin-1-yl)-4-methylpyridin-2-yl)-1′,2′-dihydrospiro[cyclopropane-1,3′-pyrrolo[3,2-c]pyridin]-6′-yl)acetamide trifluoroacetate], the results for the IC50 in assay [1] and in assay [2] were 100 to 1000 nM and at least 1000 nM, respectively.

On to `CC(=O)Nc1cc2c(cn1)C1(CC1)CN2c1cc(C)nc(N2CCOCC2)n1` [Example 213, N-(1′-(6-methyl-2-morpholinopyrimidin-4-yl)-1′,2′-dihydrospiro[cyclopropane-1,3′-pyrrolo[3,2-c]pyridin]-6′-yl)acetamide], for which the IC50 is 10 to 100 nM in assay [1] and at least 1000 nM in assay [2].

For `CC(=O)Nc1cc2c(cn1)C1(CC1)CN2c1cc(C)nc(N2CCC(O)C2)n1` (stereo not drawn) [Example 214, N-(1′-(2-(3-hydroxypyrrolidin-1-yl)-6-methylpyrimidin-4-yl)-1′,2′-dihydrospiro[cyclopropane-1,3′-pyrrolo[3,2-c]pyridin]-6′-yl)acetamide], the half-inhibitory concentration (IC50) in assay [1] is 100 to 1000 nM; in assay [2], at least 1000 nM.

`CC(=O)Nc1cc2c(cn1)C1(CC1)CN2c1cc(C)nc(N2CC(C#N)C2)n1` [Example 216, N-(1′-(2-(3-cyanoazetidin-1-yl)-6-methylpyrimidin-4-yl)-1′,2′-dihydrospiro[cyclopropane-1,3′-pyrrolo[3,2-c]pyridin]-6′-yl)acetamide]: the results for the 50% inhibitory concentration (IC50) in assay [1] and in assay [2] were 10 to 100 nM and 100 to 1000 nM, respectively.

With `CC(=O)Nc1cc2c(cn1)C1(CC1)CN2c1cc(C)nc(N2CC(F)C2)n1` [Example 217, N-(1′-(2-(3-fluoroazetidin-1-yl)-6-methylpyrimidin-4-yl)-1′,2′-dihydrospiro[cyclopropane-1,3′-pyrrolo[3,2-c]pyridin]-6′-yl)acetamide], the half-inhibitory concentration (IC50) in assay [1] was at most 10 nM; in assay [2], 100 to 1000 nM.

Take `CCC1(C#N)CN(c2nc(C)cc(N3CC4(CC4)c4cnc(NC(C)=O)cc43)n2)C1` [Example 219, N-(1′-(2-(3-cyano-3-ethylazetidin-1-yl)-6-methylpyrimidin-4-yl)-1′,2′-dihydrospiro[cyclopropane-1,3′-pyrrolo[3,2-c]pyridin]-6′-yl)acetamide]: the IC50 fell in the range of 10 to 100 nM in assay [1] and 100 to 1000 nM in assay [2].
